Results: US20070212366A1, “Use Of Mrp4-Inhibitors For The Treatment And/Or Prophylaxis Of Cardiovascular Diseases” (ERNST-MORITZ-ARNDT-UNIVERSITAT GREIFSWALD, priority 2003, published 2007)

Key:
MRP4 [1] = molecular target: T1, MRP4 (Homo sapiens, UniProt O15439); assay: Inhibition of vanadate-sensitive [3H]ADP transport in dense platelet granules (vesicle rapid filtration); format: biochemical; settings: for [^3H]ADP transport (% of control): dense platelet vesicles, [3H]ADP 1 μmol/l, 0.4 mmol/l ATP ± 1 mmol/l orthovanadate, 2 min, mean ± SD of 3; for vanadate-sensitive ADP accumulation in the dense granular fraction of the sucrose gradient: result in words, refers to Table 1
T1 construct: Dense platelet vesicles (100 μg of protein) were incubated with [3H]ADP; from tissue; host or cells: platelets (crude membrane vesicles; dense granule fraction of a sucrose gradient)
T1 sequence (O15439 1-1325): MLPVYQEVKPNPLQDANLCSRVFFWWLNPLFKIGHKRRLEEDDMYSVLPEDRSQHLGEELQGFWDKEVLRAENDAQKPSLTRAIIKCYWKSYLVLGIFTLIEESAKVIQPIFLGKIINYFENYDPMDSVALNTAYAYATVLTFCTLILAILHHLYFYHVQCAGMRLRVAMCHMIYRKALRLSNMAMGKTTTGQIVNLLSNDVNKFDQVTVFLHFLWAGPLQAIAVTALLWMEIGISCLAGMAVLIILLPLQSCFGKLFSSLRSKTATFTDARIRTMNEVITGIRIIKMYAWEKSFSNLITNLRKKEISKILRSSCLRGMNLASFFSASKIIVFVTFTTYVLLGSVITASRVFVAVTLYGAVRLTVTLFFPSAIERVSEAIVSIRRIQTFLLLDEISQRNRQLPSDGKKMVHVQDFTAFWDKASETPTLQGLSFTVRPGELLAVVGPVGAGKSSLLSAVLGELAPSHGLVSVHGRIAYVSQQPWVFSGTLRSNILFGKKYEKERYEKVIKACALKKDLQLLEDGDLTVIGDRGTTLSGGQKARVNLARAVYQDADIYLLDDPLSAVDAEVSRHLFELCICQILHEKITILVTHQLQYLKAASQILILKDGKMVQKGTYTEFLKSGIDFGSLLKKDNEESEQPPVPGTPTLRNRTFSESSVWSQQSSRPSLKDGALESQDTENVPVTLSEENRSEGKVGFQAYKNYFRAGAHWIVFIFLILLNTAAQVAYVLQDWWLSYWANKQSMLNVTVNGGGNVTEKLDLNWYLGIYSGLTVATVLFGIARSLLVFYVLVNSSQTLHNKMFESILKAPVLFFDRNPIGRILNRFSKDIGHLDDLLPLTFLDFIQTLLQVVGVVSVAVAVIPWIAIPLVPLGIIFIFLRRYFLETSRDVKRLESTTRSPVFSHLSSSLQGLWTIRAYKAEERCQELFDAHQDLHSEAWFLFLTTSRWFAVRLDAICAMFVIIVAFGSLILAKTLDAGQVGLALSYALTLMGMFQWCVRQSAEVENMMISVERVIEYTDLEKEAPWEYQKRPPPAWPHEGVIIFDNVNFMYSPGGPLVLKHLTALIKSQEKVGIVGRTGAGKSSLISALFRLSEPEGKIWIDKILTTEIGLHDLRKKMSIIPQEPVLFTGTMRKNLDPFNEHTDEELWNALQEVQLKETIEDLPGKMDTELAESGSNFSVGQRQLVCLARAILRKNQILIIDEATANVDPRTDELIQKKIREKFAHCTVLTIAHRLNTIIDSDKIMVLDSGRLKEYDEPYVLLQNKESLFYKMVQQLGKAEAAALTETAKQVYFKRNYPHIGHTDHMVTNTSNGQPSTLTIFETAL
Description: In order to determine whether the observed difference in the [^3H]ADP uptake by the vesicles in the presence and absence of orthovanadate reflects a transmembrane movement rather than binding to the membrane surface, the influence of high osmolarity was investigated. […] In the presence of orthovanadate, 1 mol/l of sucrose only slightly influenced the [^3H]ADP association to the vesicles. […] Furthermore, the vanadate-sensitive ADP accumulation in the dense granular fraction of the sucrose gradient could be detected and was inhibited by dipyridamole, MK571 and cGMP (Table 1).
Transport of [^3H]ADP. An ATP-dependent transport of [3H]ADP (1 μmol/l) in the membrane vesicles was measured by rapid filtration, as is described for [^3H]cGMP, with the exception that the vesicles in incubation buffer supplemented with 0.4 mmol/l ATP, 10 mmol/l MgCl2 are incubated in the presence or absence of sodium orthovanadate (1 mmol/l). In order to investigate the effect of the osmolarity of the extra-vesicular medium, the vesicles were preincubated for 45 minutes at 4° C. in a 1 mol/l sucrose-containing buffer or in standard incubation buffer which contained 250 mmol/l of sucrose.
Dense platelet vesicles (100 μg of protein) were incubated with [3H]ADP (1 μmol/l) in the presence of 0.4 mmol/l of ATP or 0.4 mmol/l of ATP+1 mmol/l of orthovanadate for two minutes, and the difference in the vesicle-associated radioactivity was calculated. The compounds listed were added to the incubations with and without orthovanadate in the concentrations indicated. The difference is indicated as the percentage of the control (mean value+standard deviation of 3 determinations). The control value of the vanadate-sensitive [^3H]ADP transport in this experiment was […] of protein^−1 after 2 minutes.

MRP4 [2] = molecular target: T1, MRP4; assay: [3H]ADP transport in crude platelet membrane vesicles; format: biochemical; settings: ATP 0.4 mmol/l plus 1 mM orthovanadate versus ATP alone; crude membranes
Method: In order to determine whether ADP can be a substrate for MRP4-mediated, ATP-dependent transport, the uptake of [3H]ADP (1 μM) in platelet membrane vesicles (crude membranes) in the presence of 0.4 mmol/l of ATP was measured over a period of 2 minutes. […] If ATP was replaced by 5′-AMP or the non-hydrolyzable ATP analog AMPPNP, which was customarily used in control incubations in order to calculate the ATP-dependent component of the transport, approximately a three to four-fold higher background binding of the [^3H]ADP to the membranes was observed, which increased only slightly with time (not shown). […] In order to show the ATP dependence and simultaneously to ensure identical initial ADP concentrations, the transport was measured in the presence of ATP with or without 1 mM orthovanadate, an inhibitor of ATP hydrolysis. A time-dependent increase in the vesicle-associated radioactivity in the presence of ATP was observed, in spite of the fact that [^3H]ADP was diluted by simultaneous formation of unlabeled ADP. […]
Transport of [^3H]ADP. An ATP-dependent transport of [3H]ADP (1 μmol/l) in the membrane vesicles was measured by rapid filtration, as is described for [^3H]cGMP, with the exception that the vesicles in incubation buffer supplemented with 0.4 mmol/l ATP, 10 mmol/l MgCl2 are incubated in the presence or absence of sodium orthovanadate (1 mmol/l). […]

[^3H]ADP transport (% of control) (MRP4 [1]; 100 μM substance) | vanadate-sensitive ADP accumulation in the dense granular fraction of the sucrose gradient (MRP4 [1]) | vesicle-associated radioactivity ([3H]ADP) (MRP4 [2]) | [^3H]ADP transport (% of control) (MRP4 [1]; 10 μM substance) | SMILES
40.7 ± 3.9 % of control | inhibited |  |  | CN(C)C(=O)CCSC(SCCC(=O)O)c1cccc(/C=C/c2ccc3ccc(Cl)cc3n2)c1 (centres unmarked) [MK571]
 |  | significantly reduced |  | [Na+].[Na+].[Na+].[O]=[V]([O-])([O-])[O-] [orthovanadate, sodium orthovanadate]
28.7 ± 2.3 % of control | inhibited |  |  | Nc1nc2c(ncn2[C@@H]2O[C@@H]3COP(=O)(O)O[C@H]3[C@H]2O)c(=O)[nH]1 [cGMP, cyclic GMP]
8.8 ± 0.4 % of control | inhibited |  | 52.7 ± 5.2 % of control | OCCN(CCO)c1nc(N2CCCCC2)c2nc(N(CCO)CCO)nc(N3CCCCC3)c2n1 [Dipyridamole, dipyridamole]
